Legend:
rSmMDH1 [1] = system: T1, rSmMDH1; experiment: absorbance […] nm, Lineweaver-Burk; type: biochemical, Spirometra mansoni; conditions: apparent
T1 construct: gene SmMDH1

rSmMDH1 [2] = molecular target: T1, rSmMDH1; experiment: absorbance […] nm, Lineweaver-Burk secondary plot of […]/Vmax; type: biochemical, Spirometra mansoni; conditions: forward reaction (oxaloacetate reduction, NADH); 100 mM Tris-HCl pH 7.5, 37 °C; reversible, binds enzyme-substrate complex

## NC(=O)c1ccc[n+]([C@@H]2O[C@H](COP(=O)(O)OP(=O)(O)OC[C@H]3O[C@@H](n4cnc5c(N)ncnc54)[C@H](O)[C@@H]3O)[C@@H](O)[C@H]2O)c1 [NAD]
rSmMDH1 [1]; reverse reaction, malic acid co-substrate (methods print lactate), 100 mM Tris-HCl pH 8.6, 37 °C
  Km: 1950 µM

## NC(=O)C1=CN([C@@H]2O[C@H](COP(=O)(O)OP(=O)(O)OC[C@H]3O[C@@H](n4cnc5c(N)ncnc54)[C@H](O)[C@@H]3O)[C@@H](O)[C@H]2O)C=CC1 [NADH]
rSmMDH1 [1]; forward reaction, oxaloacetate co-substrate, 100 mM Tris-HCl pH 7.5, 37 °C
  Km: 1750 µM

## O=C(O)CC(=O)C(=O)O [oxaloacetic acid]
rSmMDH1 [1]; forward reaction, NADH co-substrate, 100 mM Tris-HCl pH 7.5, 37 °C, tested 1-10 mM
  Km: 63500 µM

## O=C(O)C[C@H](O)C(=O)O [malic acid]
rSmMDH1 [1]; reverse reaction, NAD co-substrate, 100 mM Tris-HCl pH 8.6, 37 °C
  Km: 1190 µM

## NC(=S)c1cccnc1 [thionicotinamide]
rSmMDH1 [2]
  Ki: 144 µM
